Measurements from a melting point compilation (Tetko et al.; mined from patent text by program, amines drawn as free bases though some values may be those of a salt).

Cn1ncc(C23CCCN(CC2)C3)n1 (stereo unspecified) gave a melting point of 65 to 70 °C.
For Cc1ccc(S(=O)(=O)N2C[C@@H](Cl)C[C@@H]2CCl)cc1, the melting point was 103 to 105 °C.
Compound O=C1C2CCCCC2C(=O)N1c1c(F)cc(F)cc1F (stereo unspecified) has a melting point of 129 to 131 °C.
O=C(c1ccc(F)cc1)C1CCN(CCCn2c(=S)[nH]c3ccccc3c2=O)CC1 showed a melting point of 200 °C.
Compound Nc1nc2ccccc2c2c1ncn2Cc1cc(-c2ccc(F)cc2)no1 has a melting point of 259 to 260 °C.
With CCCCCc1cccn1NS(=O)(=O)C1CCCC=C1C(=O)OCC (stereo unspecified) the melting point was 60 to 61 °C.
With NS(=O)(=O)c1ccc(-n2nc(CNC(=O)Nc3cccc(C(F)(F)F)c3)cc2-c2ccccc2)cc1 the melting point was 185 to 190 °C.
For CCCn1c(N)c(N=O)c(=O)n(CC2CCCCC2)c1=O, the melting point was 225 to 226 °C.
Oc1c(Cl)nc(-c2ccccc2)nc1Cl gave a melting point of 138 to 140 °C.
CCOC(=O)c1[nH]c(C)c(C)c1OCCCCl showed a melting point of 60 to 63 °C.
O=C(N[C@H]1CC(=O)N(c2cc(Cc3n[nH]c(=O)c4ccccc34)ccc2F)C1=O)OCc1ccccc1 showed a melting point of 121 to 127 °C.
In the case of Cc1ccccc1Cn1c(=O)on(C(=O)N(c2ccc(Cl)cc2)C(C)C)c1=O, the melting point was 90 to 91 °C.
CC(=O)OC(C)OC(=O)N1c2ccccc2Sc2cc(O)c3ccccc3c21 (stereo unspecified) gave a melting point of 102 to 112 °C.
For O=C1CSC(=S)N1C(=O)Nc1ccc2nc(S)sc2c1, the melting point was 212 to 217 °C.
O=C1c2cccc3cccc(c23)C(=O)N1C1CCC(O)CC1 (stereo unspecified) gave a melting point of 240 to 242 °C.
Compound c1cc2c3c(ccc2[nH]1)NCC3 has a melting point of 183 to 186 °C.
For CC(=O)Nc1ccc(OCCO[N+](=O)[O-])cc1, the melting point was 106 to 107 °C.
Cn1ncnc1COc1nc2c(nnn2-c2ccccc2)c2ccccc12 showed a melting point of 188 to 190 °C.
For COc1ccccc1-c1ccc(C#N)c(=O)[nH]1, the melting point was 236 to 238 °C.
C=CCOc1cc(-c2ncnc(C(F)F)c2Cl)c(F)cc1Cl gave a melting point of 69 to 71 °C.
Compound CCOC(=O)C1=NN(c2ccc([N+](=O)[O-])cc2)C2(N3CCCC3)CCCC12 (stereo unspecified) has a melting point of 118 °C.
CCOC(=O)c1[nH]c(CC)c(CC(C)C)c1C gave a melting point of 94 to 96 °C.
Work on CC(=O)OCc1ccc([N+](=O)[O-])cc1 yielded a melting point of 77 to 78 °C.
With CCC(C(=O)O)c1ccccc1Br (stereo unspecified) the melting point was 37 to 39 °C.
Compound Cc1c(NC(=O)c2ccc(OC[C@@H]3CCCO3)cc2)ccc2cc(CNCC(C)C)[nH]c12 has a melting point of 159 °C.
With CCOC(=O)c1cnc2c3cc(N)ccc3c(C)cn2c1=O the melting point was 245 to 248 °C.
With COC(=O)c1ccc(CC(C)NCC(O)c2ccc(O)c(CO)c2)cc1 (stereo unspecified) the melting point was 118 to 120 °C.
Work on O=C(NCCO)/C(=C/c1ccc(OC2CC2)cc1)NC(=O)c1ccc(OCCc2ccc(Cl)cc2)cc1 yielded a melting point of 66 to 69 °C.
In the case of COC1=NS(=O)N=C1NCCCCc1ncc(Br)cc1N (stereo unspecified), the melting point was 118 to 120 °C.
Work on Cc1nc(Cl)c2c(C)c(C)n(-c3c(Br)cc(C(F)(F)F)cc3Br)c2n1 yielded a melting point of 202 to 204 °C.
Compound CCCc1c[nH]nc1OCc1ccc2ccccc2n1 has a melting point of 94 to 95 °C.
Work on COC(=O)c1cc(-c2cccc(C(=O)O)c2)c2cc(Cc3ccc(F)cc3)cnc2c1O yielded a melting point of 265 to 267 °C.
Work on OC[C@H]1C[C@@H]2c3ccccc3Oc3ccc(F)cc3[C@H]2N1 yielded a melting point of 108 to 109 °C.
Cn1ncc2c1-c1c(Oc3ccc4c(c3)OCO4)sc(C(=O)NCc3ccncc3)c1CC2 showed a melting point of 202 to 204 °C.
Work on COC(=O)C(C(=O)OC)=C1SC=CS1 yielded a melting point of 125 to 129 °C.
CCOC(=O)CS(=O)(=O)Nc1ccccc1CC(=O)OC gave a melting point of 86 to 88 °C.
In the case of COc1cc2c(cc1Br)-c1cc3c(n1CC2)C(=O)N(C(C)(C)C)CCCC3, the melting point was 127 to 129 °C.
Compound COC(=O)C(CO)N(Cc1ccc(Cl)cc1N)S(=O)(=O)c1ccc(OC)cc1 (stereo unspecified) has a melting point of 99 to 112 °C.
For COC(=O)CCCC(=O)c1ccccc1C=CBr, the melting point was 52 to 55 °C.
Work on N#CCNC(=O)c1ccc(Cl)c(Cl)c1 yielded a melting point of 144 to 145 °C.
Compound O=C(O)C1Cc2ccccc2N1S(=O)(=O)c1ccc(-c2cccc(C(F)(F)F)c2)cc1 (stereo unspecified) has a melting point of 108 to 112 °C.
Work on Cc1c(Cc2cccc(C(F)(F)F)c2)sc2c(-c3cc(C(=O)O)ccn3)cccc12 yielded a melting point of 271 to 272 °C.
In the case of O=C(Cn1c(-c2ccccc2)ncc(NC(=O)OCc2ccc(C(=O)O)cc2)c1=O)NC(Cc1ccccc1)C(=O)C(F)(F)F (stereo unspecified), the melting point was 202 to 207 °C.
Work on CCC(=NOCc1ccc(Cl)cc1)c1cc(Cl)ccc1NS(=O)(=O)C(F)(F)F yielded a melting point of 54 to 55 °C.
For CCCCCCCCCCCCCCCCNC(=O)c1cc(OCCSCC(=O)O)c2ccccc2c1O, the melting point was 91 to 93 °C.
With COc1cc(C(=O)NC(C)(C)C)ccc1S(=O)(=O)N1C(=O)C(N)(c2ccccc2Cl)c2cc(Cl)ccc21 (stereo unspecified) the melting point was 263 to 265 °C.
For CCCCCCC/C=C/C(=O)NC1CCCCC1, the melting point was 94 to 96 °C.
In the case of COC(=O)c1nc2cc(C)ccc2c(O)c1C(=O)OC, the melting point was 209 to 211 °C.
With O=c1c2ccccc2nc(-c2sc(Nc3ccc(Cl)cc3)nc2-c2ccccc2)n1-c1ccc(Cl)cc1 the melting point was 271 to 272 °C.
c1coc(C2Nc3ccccc3N3CCc4cccc2c43)c1 (stereo unspecified) gave a melting point of 141 to 144 °C.
Compound C=Cn1nc(-c2c(-c3ccccc3)nn3ccccc23)ccc1=O has a melting point of 188 °C.
For Cc1cc(C)cc(Sc2c(C(C)C)nc(C=NN)n2C)c1, the melting point was 118 to 119 °C.
Work on O=c1[nH]c(=O)n(C2OC(CO)C(O)C2O)cc1C(Cl)=CI (stereo unspecified) yielded a melting point of 109 to 111 °C.
In the case of CCNC(=O)/C=C/c1cccc(Br)c1, the melting point was 89 to 90 °C.
For N#CN=C(Nc1cccc(F)c1)NC(NC(=O)c1ccc(Cl)cc1)c1ccsc1 (stereo unspecified), the melting point was 166 to 168 °C.
For COc1ccc2c(c1)C(c1ccc([N+](=O)[O-])cc1)=Nn1c(C)nnc1C2, the melting point was 192 to 194 °C.
NC(CCCCNC(=O)OCc1ccccc1)C(=O)NC1c2ccccc2-c2ccccc21 (stereo unspecified) showed a melting point greater than 280 °C.
With O=C(Nc1c(C(O)(C(F)(F)F)C(F)(F)F)ccc2ccccc12)c1ccc(I)cc1 the melting point was 189 to 190 °C.
Compound COC(=O)C(NC(C)=O)NC(=O)c1cc(Cl)cc(Cl)c1 (stereo unspecified) has a melting point of 235 to 237 °C.
In the case of COc1ccc(CC(=S)N2CCOCC2)cc1, the melting point was 145 to 147 °C.
With Cc1ccnc(-c2c(C)noc2C)c1OC1SCC(O)C(O)C1O (stereo unspecified) the melting point was 70 to 100 °C.
In the case of CCOC(=O)c1cccc(-c2ccc(-c3ccc(C(F)(F)F)cc3)o2)c1, the melting point was 93 to 94 °C.
CC1(C)C(C(=O)O)C12C=CC=C2 (stereo unspecified) showed a melting point of 126 to 129 °C.
Work on CCOC(=O)Cc1ccc(SCc2cc(C)ccc2C(=O)O)cc1 yielded a melting point of 94 °C.
For CC(=O)O[C@@](Cn1cncn1)(c1ccc(F)cc1F)[C@@H](C)S(=O)(=O)Cl, the melting point was 110 to 115 °C.
CN(CCCSCCCC(F)(F)C(F)(F)F)CCOc1ccc(C2=C(c3ccccc3)CCCc3cc(O)ccc32)cc1 gave a melting point of 40 to 42 °C.
Work on CS(=O)(=O)OCCCCCc1ccc(OCc2coc(/C=C/c3ccccc3)n2)cc1 yielded a melting point of 105 to 106 °C.
Compound CCCNC(=O)C(C)Cc1ccc2c(c1)c(Cc1ccc(C(=O)NS(=O)(=O)c3ccccc3C)cc1OC)cn2CC(=O)N(C)C (stereo unspecified) has a melting point of 109 to 124 °C.
Work on O=C(Nc1ccccn1)c1cn(-c2ccccc2)c2ccccc2c1=O yielded a melting point of 238 to 240 °C.
In the case of O=C(NC(Cc1ccccc1)P(O)O)OCc1ccccc1 (stereo unspecified), the melting point was 137 °C.
For CC(O)c1ccc2c(NCc3ccc(NC(=O)c4ccc(F)cc4)cc3)nc(N(C)C)nc2c1 (stereo unspecified), the melting point was 232 °C.
For CC(C)(SCc1cc2cc(C(F)(F)F)ccc2n1S(=O)(=O)c1ccccc1)C(=O)O, the melting point was 90 °C.
For CC(C)n1c(C=O)c(-c2ccc(F)cc2)c(-c2ccccc2)c1C(N)=O, the melting point was 187 to 188 °C.
COc1c(C)c(N2CCN(c3ccc(C(F)(F)F)cc3)CC2)c(C)c2c1OC(C)C2 (stereo unspecified) gave a melting point of 142 to 145 °C.
For C[C@@H]1CCNC[C@@H]1N(C)c1nccc2[nH]ccc12, the melting point was 127 °C.
In the case of COc1cc(C=O)c(OC)c2c1C(C)(C)CCC2(C)C, the melting point was 55 to 57 °C.
Compound NC(=O)NC(C(=O)O)c1cccs1 (stereo unspecified) has a melting point of 183 to 185 °C.
For CC1(C)CC(=O)C(S(=O)(=O)Cc2ccccc2)=C(O)C1, the melting point was 87 to 89 °C.
NS(=O)(=O)CS(=O)c1ccc(Cl)c(Cl)c1 (stereo unspecified) gave a melting point of 205 to 207 °C.
With Cc1cc(CNC(=O)c2ccnc(N3CCN(Cc4ccc(F)cc4)C3=O)c2)nn1C the melting point was 150 to 152 °C.
COc1cc(N)ccc1NC1=CC(=O)C(N)=CC1=O showed a melting point of 267 °C.
In the case of CC(O)c1nnc(-c2ccc3occ(-c4cccc(OC(F)(F)F)c4)c3c2)o1 (stereo unspecified), the melting point was 131 to 132 °C.
In the case of CNCc1csc(-c2cccc(C3=Nc4cc(N(C)C)c(Cl)cc4NC(=O)C3)c2)n1, the melting point was 129 to 130 °C.
Compound CCCN(CCC)CCc1ccc(O)c2nc[nH]c12 has a melting point of 135 to 139 °C.
With O=[N+]([O-])c1cc(Cl)ccc1I(Cl)Cl the melting point was 53 to 60 °C.
Compound C#CCOc1ccc(-c2nc3cnccc3[nH]2)c(OC)c1 has a melting point of 210 °C.
Compound COC(=O)[C@H](Cc1cccc2ccccc12)NC(=O)[C@H](CC(=O)OC(C)(C)C)NC(=O)c1cccc(NC(=O)C(Cc2ccc(C#N)cc2)NC(=O)OC(C)(C)C)c1 (mixture of isomers) has a melting point of 182 to 185 °C.
Work on CCOC(=O)ON(C(N)=O)[C@H]1C[C@@H](c2ccc(F)cc2)C1 yielded a melting point of 124 to 126 °C.
Cc1cc(Br)cnc1CCCn1nnc2cc(Cc3cccnc3)cnc21 gave a melting point of 109 to 110 °C.
With CCCCNC1=NS(=O)(=O)c2sc(Cl)cc2N1 the melting point was 218 to 219 °C.
Work on CCOC(=O)c1c(C)nc(OCC)c2nnn(CC)c12 yielded a melting point of 56 to 58 °C.
Nc1csc(-c2ccccc2)c1 gave a melting point of 76 to 78 °C.
CC(=O)NC[C@H]1CN(c2ccc(C(=O)c3cnc4c(Cl)cc(Cl)cn34)cc2)C(=O)O1 gave a melting point of 228 to 229 °C.
O=C(O)c1cn(C2CCCC2)c2c(F)c(F)c(F)cc2c1=O gave a melting point of 206 to 207 °C.
Compound Cc1cccc(C2=NC(C)(C(C)C)C(=S)N2)c1 (stereo unspecified) has a melting point of 122 to 123 °C.
CC1c2ccccc2-c2ccccc2N1S(=O)(=O)c1ccc(O)c(O)c1 (stereo unspecified) gave a melting point of 163 to 165 °C.
O=C1C=C(CO)C(=O)N1 gave a melting point of 104 to 106 °C.
Work on CN(C)S(=O)(=O)c1ccc2c(c1)C(O)c1ccccc1C=C2 (stereo unspecified) yielded a melting point of 150 to 152 °C.
With COC(=O)CCc1cc2cc(Cl)ccc2n1S(=O)(=O)c1cccc2cccnc12 the melting point was 157 to 161 °C.
With CC(c1ccccc1)C(Oc1c(Br)cc(-c2c3ccccc3c(Br)c3sc4ccccc4c23)cc1Br)C(=O)O (stereo unspecified) the melting point was 115 to 120 °C.
ON1C(c2ccccc2)CC2(CC1c1ccccc1)OCCO2 (stereo unspecified) gave a melting point of 161 to 162 °C.
